Data from the supplement of paper PMC10307832.

Legend:
Assay in all cases: relative viability (nuclei count vs DMSO), 5 days (fraction); higher = more cells survive
[1] = compound: C1=CC2=C(C=CC(=C2)C=C3C(=O)NC(=NCC4=CC=CS4)S3)N=C1 [RO-3306] + CC(=O)c1c(C)c2cnc(Nc3ccc(N4CCNCC4)cn3)nc2n(C2CCCC2)c1=O [Palbociclib] (partner 0.5 µM)
Procedure, shortened: (§1)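 Relative viability is defined as nuclei in treated wells over nuclei in vehicle wells. Duplicate plates were run and medians reported. Lung cancer cell lines in 1536-well plates were dosed by pin tool one day after seeding, with one drug or with a fixed anchor-drug dose plus five library-drug doses (not always all listed) in √10 steps, and nuclei were counted after 5 days.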

[2] = compound: C1=CC2=C(C=CC(=C2)C=C3C(=O)NC(=NCC4=CC=CS4)S3)N=C1 [RO-3306] + O=C(CCCCCCC(=O)Nc1ccccc1)NO [Vorinostat] (partner 1 µM)
Procedure, shortened: as §1

[3] = compound: O=S(=O)(c1ccccc1)N(CC(F)(F)F)c1ccc(C(O)(C(F)(F)F)C(F)(F)F)cc1 + CC1(C)CCC(c2ccc(Cl)cc2)=C(CN2CCN(c3ccc(C(=O)NS(=O)(=O)c4ccc(N[C@H](CCN5CCOCC5)CSc5ccccc5)c(S(=O)(=O)C(F)(F)F)c4)cc3)CC2)C1 [Navitoclax] (partner 0.5 µM)
Procedure, shortened: as §1

[4] = compound: O=S(=O)(c1ccccc1)N(CC(F)(F)F)c1ccc(C(O)(C(F)(F)F)C(F)(F)F)cc1 + N=C(N)NC(=N)NCCc1ccccc1 [Phenformin] (partner 250 µM)
Procedure, shortened: as §1

[5] = compound: O=S(=O)(c1ccccc1)N(CC(F)(F)F)c1ccc(C(O)(C(F)(F)F)C(F)(F)F)cc1 + O=C(CCCCCCC(=O)Nc1ccccc1)NO [Vorinostat] (partner 1 µM)
Procedure, shortened: as §1

Question: For UMC-11, which relative viability ([1]; first compound 0.01 µM) is on record?
Answer: The relative viability was 0.305.

Question: What about the relative viability ([1]; first compound 0.03162 µM) of the same cell line?
Answer: Its relative viability is 0.319.

Question: What about the relative viability ([1]; first compound 0.1 µM) of the same cell line?
Answer: Its relative viability is 0.297.

Question: And the relative viability ([1]; first compound 0.3162 µM)?
Answer: Its relative viability is 0.309.

Question: And the relative viability ([1]; first compound 1 µM)?
Answer: Its relative viability is 0.277.

Question: And the relative viability ([2]; first compound 0.01 µM)?
Answer: The relative viability was 0.386.

Question: What about the relative viability ([2]; first compound 0.03162 µM) of the same cell line?
Answer: Its relative viability is 0.376.

Question: What about the relative viability ([2]; first compound 0.1 µM) of the same cell line?
Answer: Its relative viability is 0.384.

Question: And the relative viability ([2]; first compound 0.3162 µM)?
Answer: Its relative viability is 0.339.

Question: What about the relative viability ([2]; first compound 1 µM) of the same cell line?
Answer: Its relative viability is 0.322.

Question: And the relative viability ([3]; first compound 0.8 µM)?
Answer: The relative viability was 0.335.

Question: And the relative viability ([3]; first compound 2.53 µM)?
Answer: Its relative viability is 0.352.

Question: And the relative viability ([3]; first compound 8 µM)?
Answer: The relative viability was 0.37.

Question: What about the relative viability ([4]; first compound 0.8 µM) of the same cell line?
Answer: Its relative viability is 0.315.

Question: What about the relative viability ([4]; first compound 2.53 µM) of the same cell line?
Answer: The relative viability was 0.295.

Question: And the relative viability ([4]; first compound 8 µM)?
Answer: Its relative viability is 0.315.

Question: What about the relative viability ([5]; first compound 0.8 µM) of the same cell line?
Answer: The relative viability was 0.381.

Question: And the relative viability ([5]; first compound 2.53 µM)?
Answer: Its relative viability is 0.357.

Question: What about the relative viability ([5]; first compound 8 µM) of the same cell line?
Answer: Its relative viability is 0.396.
